# Source: the supplement of paper PMC10307832
# Experiments:
# Assay in all cases: relative viability (nuclei count vs DMSO), 5 days (fraction); higher = more cells survive
# CX-5461 + Pemetrexed = compound: Cc1cnc(CNC(=O)c2c(=O)c3ccc(N4CCCN(C)CC4)nc3n3c2sc2ccccc23)cn1 [CX-5461] + Nc1nc2[nH]cc(CCc3ccc(C(=O)N[C@@H](CCC(=O)O)C(=O)O)cc3)c2c(=O)[nH]1 [Pemetrexed] (partner 0.2 µM)
# Outline: (§1)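 After 5 days of treatment, lung cancer cells in 1536-well plates were fixed and stained in a single step (final 0.05% Triton X-100, 1% formaldehyde, 1 ug/ml Hoechst) and their nuclei counted on 4× images. Treatment had been applied by pin tool the day after seeding as one drug alone or as a fixed anchor-drug dose with five library-drug doses (not always all listed) in √10 steps. Relative viability is the nuclei count of treated wells divided by that of vehicle wells, and values are medians of duplicate plates.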
# IMD-0354 + Phenformin = compound: O=C(Nc1cc(C(F)(F)F)cc(C(F)(F)F)c1)c1cc(Cl)ccc1O [IMD-0354] + N=C(N)NC(=N)NCCc1ccccc1 [Phenformin] (partner 250 µM)
# Outline: as §1
# CX-5461 + Navitoclax = compound: Cc1cnc(CNC(=O)c2c(=O)c3ccc(N4CCCN(C)CC4)nc3n3c2sc2ccccc23)cn1 [CX-5461] + CC1(C)CCC(c2ccc(Cl)cc2)=C(CN2CCN(c3ccc(C(=O)NS(=O)(=O)c4ccc(N[C@H](CCN5CCOCC5)CSc5ccccc5)c(S(=O)(=O)C(F)(F)F)c4)cc3)CC2)C1 [Navitoclax] (partner 0.5 µM)
# Outline: as §1
# CX-5461 + Bortezomib = compound: Cc1cnc(CNC(=O)c2c(=O)c3ccc(N4CCCN(C)CC4)nc3n3c2sc2ccccc23)cn1 [CX-5461] + CC(C)C[C@H](NC(=O)[C@H](Cc1ccccc1)NC(=O)c1cnccn1)B(O)O [Bortezomib] (partner 0.002 µM)
# Outline: as §1
Cell Line,relative viability (CX-5461 + Pemetrexed; first compound 0.01 µM),relative viability (CX-5461 + Pemetrexed; first compound 0.03162 µM),relative viability (CX-5461 + Pemetrexed; first compound 0.1 µM),relative viability (CX-5461 + Pemetrexed; first compound 0.3162 µM),relative viability (CX-5461 + Pemetrexed; first compound 1 µM),relative viability (IMD-0354 + Phenformin; first compound 0.04 µM),relative viability (IMD-0354 + Phenformin; first compound 0.1265 µM),relative viability (IMD-0354 + Phenformin; first compound 0.4 µM),relative viability (IMD-0354 + Phenformin; first compound 1.265 µM),relative viability (IMD-0354 + Phenformin; first compound 4 µM),relative viability (CX-5461 + Navitoclax; first compound 0.01 µM),relative viability (CX-5461 + Navitoclax; first compound 0.03162 µM),relative viability (CX-5461 + Navitoclax; first compound 0.1 µM),relative viability (CX-5461 + Navitoclax; first compound 0.3162 µM),relative viability (CX-5461 + Navitoclax; first compound 1 µM),relative viability (CX-5461 + Bortezomib; first compound 0.01 µM),relative viability (CX-5461 + Bortezomib; first compound 0.03162 µM),relative viability (CX-5461 + Bortezomib; first compound 0.1 µM),relative viability (CX-5461 + Bortezomib; first compound 0.3162 µM),relative viability (CX-5461 + Bortezomib; first compound 1 µM)
201T,0.324,0.302,0.329,0.318,0.318,0.524,0.465,0.322,0.286,0.303,1.18,1.22,1.21,1.18,1.19,1.16,1.15,1.08,1.14,1.05
A549,,,,,,0.23,0.106,0.0873,0.03,0.0515,1.05,0.932,,0.833,0.035,,,,,
A-427,0.98,0.908,0.927,0.967,0.714,0.379,0.209,0.247,0.105,0.112,1.05,1.06,0.961,,0.979,0.999,1.04,0.98,,0.912
ABC-1,,,,,,0.227,0.207,0.224,0.197,0.194,,,,,,0.297,0.282,,0.206,0.313
BEN,0.75,0.742,0.711,0.759,0.556,0.248,0.267,0.229,0.179,0.174,0.0792,0.0627,0.052,0.0668,0.066,1.07,0.665,1.02,0.672,0.597
CAL-12T,1.29,1.29,1.09,1.1,0.86,0.623,0.512,0.252,0.117,0.134,1.18,1.25,,1.05,0.573,0.941,0.92,0.909,1.17,0.831
COR-L23,0.283,0.187,0.207,0.157,0.201,0.466,0.373,0.263,0.108,0.0986,0.966,0.981,0.786,0.978,0.417,0.831,1.05,0.813,1.04,0.474
COR-L 105,1.13,0.943,1.03,1.16,0.706,0.659,0.462,0.39,0.183,0.211,0.891,0.734,0.768,0.801,0.689,0.841,0.701,0.492,0.385,0.416
Calu-6,,,,,,,,,,,0.659,0.872,0.743,0.852,0.157,1.16,1.06,0.907,1.12,0.382
ChaGo-K-1,0.251,0.256,0.243,0.214,0.255,0.584,0.544,0.318,0.225,0.199,1.32,0.947,0.752,0.413,0.618,1.14,0.968,0.647,0.414,0.449
EBC-1,,,,,,,,,,,0.391,0.374,0.437,0.416,0.197,0.591,0.619,0.466,0.49,0.423
EKVX,0.457,0.394,0.437,,0.322,0.254,0.234,0.196,0.106,0.132,1.13,1.03,0.958,,0.764,1.29,1.04,1.01,,0.838
EMC-BAC-2,0.435,0.439,0.395,0.443,0.399,0.52,0.441,0.24,0.155,0.218,1.17,1.29,1.21,1.13,1.14,1.14,1.13,1.04,1.06,0.746
EPLC-272H,0.319,0.382,0.367,0.402,0.377,0.34,0.199,0.304,0.0841,0.0653,1.28,1.3,1.11,,1.13,0.93,0.975,0.765,,0.814
H3255,0.608,0.564,0.553,0.557,0.57,0.338,0.364,0.345,0.288,0.332,0.626,0.484,0.533,0.273,0.397,0.878,0.791,0.775,0.464,0.789
HARA,0.204,0.272,0.27,0.208,0.253,0.422,0.47,0.154,0.0947,0.0925,1.11,1.23,1.17,1.08,1.12,1.01,1.28,1.13,1.06,0.809
HCC-15,0.232,0.232,0.215,0.233,0.204,0.466,0.37,0.188,0.0833,0.165,0.725,0.773,0.713,0.717,0.656,1.04,1.16,1.02,1.03,0.731
IA-LM,,,,,,,,,,,0.941,0.993,0.724,0.769,0.272,0.785,0.795,0.734,0.877,0.355
LCLC-103H,0.426,0.482,0.46,0.401,0.4,0.39,0.304,0.197,0.214,0.177,,,,,,1.1,1.13,1.11,1.02,1.07

Cell Line,relative viability (CX-5461 + Pemetrexed; first compound 0.01 µM),relative viability (CX-5461 + Pemetrexed; first compound 0.03162 µM),relative viability (CX-5461 + Pemetrexed; first compound 0.1 µM),relative viability (CX-5461 + Pemetrexed; first compound 0.3162 µM),relative viability (CX-5461 + Pemetrexed; first compound 1 µM),relative viability (IMD-0354 + Phenformin; first compound 0.04 µM),relative viability (IMD-0354 + Phenformin; first compound 0.1265 µM),relative viability (IMD-0354 + Phenformin; first compound 0.4 µM),relative viability (IMD-0354 + Phenformin; first compound 1.265 µM),relative viability (IMD-0354 + Phenformin; first compound 4 µM),relative viability (CX-5461 + Navitoclax; first compound 0.01 µM),relative viability (CX-5461 + Navitoclax; first compound 0.03162 µM),relative viability (CX-5461 + Navitoclax; first compound 0.1 µM),relative viability (CX-5461 + Navitoclax; first compound 0.3162 µM),relative viability (CX-5461 + Navitoclax; first compound 1 µM),relative viability (CX-5461 + Bortezomib; first compound 0.01 µM),relative viability (CX-5461 + Bortezomib; first compound 0.03162 µM),relative viability (CX-5461 + Bortezomib; first compound 0.1 µM),relative viability (CX-5461 + Bortezomib; first compound 0.3162 µM),relative viability (CX-5461 + Bortezomib; first compound 1 µM)
LK-2,0.213,0.258,0.299,,0.236,0.641,0.382,0.41,0.22,0.265,,0.984,0.939,0.319,0.904,,,,,
NCI-H358,0.159,0.157,0.165,0.173,0.156,0.348,0.241,0.17,0.121,0.0927,,,,,,,,,,
NCI-H522,1.15,1.1,0.832,,0.918,0.614,0.666,0.464,0.61,0.383,,,,,,,,,,
NCI-H650,1.05,0.986,0.879,0.943,0.873,0.448,0.451,0.371,0.234,0.2,,,,,,0.887,0.832,0.739,0.594,0.483
NCI-H661,0.928,0.902,0.855,0.802,0.722,0.268,0.249,0.224,0.198,0.232,,,,,,0.885,0.877,0.61,,0.639
NCI-H727,,,,,,0.483,0.407,0.426,0.307,0.402,0.493,0.365,0.464,0.354,0.31,1.03,0.812,0.596,0.718,0.662
NCI-H1299,,,,,,,,,,,1.1,1.06,1.04,1.04,1.05,1,0.981,1.05,1.04,0.979
NCI-H1395,0.835,0.846,0.816,0.437,0.488,0.489,0.452,0.382,0.313,0.267,1.17,0.993,1.16,0.964,0.63,,,,,
NCI-H1563,0.81,0.747,0.908,0.687,0.651,0.688,0.622,0.53,0.329,0.37,,,,,,0.894,0.788,0.632,0.742,0.499
NCI-H1623,,,,,,0.565,0.621,0.459,0.364,0.385,,,,,,,,,,
NCI-H1648,0.631,0.847,0.686,0.832,0.494,,,,,,,,,,,,,,,
NCI-H1703,,,,,,,,,,,1.22,1.28,0.932,1.13,0.313,0.31,0.378,0.318,0.337,0.154
NCI-H1793,1.17,1.21,0.92,0.706,0.802,0.386,0.344,0.157,0.163,0.147,0.485,0.306,0.37,0.485,0.443,,,,,
NCI-H1944,0.561,0.653,0.531,0.451,0.271,0.232,0.197,0.15,0.116,0.148,1.06,1.09,1.01,,1.02,,,,,
NCI-H2170,0.252,0.257,0.267,0.26,0.272,0.418,0.37,0.301,0.229,0.221,0.627,0.585,0.698,0.532,0.665,,,,,
NCI-H2342,0.764,0.815,0.751,0.744,0.745,0.632,0.593,0.455,0.4,0.383,,,,,,,,,,
SK-MES-1,0.95,0.988,0.888,0.955,0.546,0.747,0.583,0.422,0.356,0.241,1.19,1.28,1.28,1.38,1.14,,,,,
SW 900,0.437,0.52,,0.521,0.441,0.661,0.48,0.302,0.185,0.202,,,,,,,,,,
